The source of these data is ChEMBL document CHEMBL3390835, “New insight into the mode of action of vancomycin dimers in bacterial cell wall synthesis” (Medchemcomm, 2011).

In brackets after ≈: the same amount, converted by molar mass. Activity calls are given as the source filed them. No cut-off for these calls is given here.

Assay [1] concerns Staphylococcus aureus. The assay is described as follows: Antibacterial activity against vancomycin-susceptible Staphylococcus aureus RN4220. It is filed as functional.
In assay [2] the test system is Enterococcus faecium. The assay is described as follows: Antibacterial activity against vancomycin A-resistant Enterococcus faecium SR7940. It is filed as functional.
Assay [3] relates to Enterococcus faecium. The assay is described as follows: Antibacterial activity against vancomycin B-resistant Enterococcus faecium SR23598. It is filed as functional.
The subject of assay [4] is Staphylococcus aureus. The experiment in a line: Inhibition of cell wall synthesis in vancomycin-susceptible Staphylococcus aureus assessed as reduction of lipid intermediate synthesis using UDP-Mur-NAc-pentapeptide (L-Ala-gamma-D-Glu-L-Lys-D-Ala-D-Ala), UDPGlcNAc and [14C] glycine as precursors. It is filed as functional, organism-based.
Assay [5] has as its system Staphylococcus aureus. The assay is described as follows: Inhibition of cell wall synthesis in vancomycin-susceptible Staphylococcus aureus assessed as reduction of peptidoglycan synthesis using UDP-Mur-NAc-pentapeptide (L-Ala-gamma-D-Glu-L-Lys-D-Ala-D-Ala), UDPGlcNAc and [14C] glycine as precursors. It is filed as functional, organism-based.
Assay [6] relates to Staphylococcus aureus. The assay is described as follows: Inhibition of cell wall synthesis in vancomycin-resistant Staphylococcus aureus assessed as reduction of lipid intermediate synthesis using UDP-Mur-NAc-pentapeptide (L-Ala-gamma-D-Glu-L-Lys-D-Ala-D-Lactate), UDPGlcNAc and [14C] glycine as precursors. It is filed as functional, organism-based.
The test system of assay [7] is Staphylococcus aureus. The experiment in a line: Inhibition of cell wall synthesis in vancomycin-resistant Staphylococcus aureus assessed as reduction of peptidoglycan synthesis using UDP-Mur-NAc-pentapeptide (L-Ala-gamma-D-Glu-L-Lys-D-Ala-D-Lactate), UDPGlcNAc and [14C] glycine as precursors. It is filed as functional, organism-based.
The subject of assay [8] is Enterococcus faecium. The experiment in a line: Inhibition of protein synthesis in vancomycin B-resistant Enterococcus faecium SRM1101 assessed as [14C]leucine incorporation measured after 15 mins cultivation. It is filed as functional, organism-based.
The subject of assay [9] is Enterococcus faecium. The assay is described as follows: Inhibition of DNA synthesis in vancomycin B-resistant Enterococcus faecium SRM1101 assessed as [14C]thymidine incorporation measured after 15 mins cultivation. It is filed as functional, organism-based.
Assay [10] has as its system Enterococcus faecium. The assay is described as follows: Inhibition of RNA synthesis in vancomycin B-resistant Enterococcus faecium SRM1101 assessed as [3H]uracil incorporation measured after 15 mins cultivation. It is filed as functional, organism-based.
Assay [11] deals with Enterococcus faecium. The assay is described as follows: Inhibition of fatty acid synthesis in vancomycin B-resistant Enterococcus faecium SRM1101 assessed as [14C]acetic acid incorporation measured after 15 mins cultivation. It is filed as functional, organism-based.
The subject of assay [12] is Enterococcus faecium. The experiment in a line: Inhibition of peptidoglycan synthesis in vancomycin B-resistant Enterococcus faecium SRM1101 assessed as [3H]N-acetyl-D-glucosamine incorporation measured after 15 mins cultivation. It is filed as functional, organism-based.

As for `CN[C@H](CC(C)C)C(=O)N[C@H]1C(=O)N[C@@H](CC(N)=O)C(=O)N[C@H]2C(=O)N[C@H]3C(=O)N[C@H](C(=O)N[C@H](C(=O)NCc4c5oc6c(CNC(=O)[C@H]7NC(=O)[C@H]8NC(=O)[C@H](NC(=O)[C@@H]9NC(=O)[C@H](CC(N)=O)NC(=O)[C@H](NC(=O)[C@@H](CC(C)C)NC)[C@H](O)c%10ccc(c(Cl)c%10)Oc%10cc9cc(c%10O[C@@H]9O[C@H](CO)[C@@H](O)[C@H](O)[C@H]9O[C@H]9C[C@](C)(N)[C@H](O)[C@H](C)O9)Oc9ccc(cc9Cl)[C@H]8O)c8ccc(O)c(c8)-c8c(O)cc(O)cc87)cccc6nc-5cc(N)c4=O)c4cc(O)cc(O)c4-c4cc3ccc4O)[C@H](O)c3ccc(c(Cl)c3)Oc3cc2cc(c3O[C@@H]2O[C@H](CO)[C@@H](O)[C@H](O)[C@H]2O[C@H]2C[C@](C)(N)[C@H](O)[C@H](C)O2)Oc2ccc(cc2Cl)[C@H]1O`, the MIC was 16 µg/mL (≈ 5.11 µM) in [1], 4 µg/mL (≈ 1.28 µM) in [2] and 1 µg/mL (≈ 0.319 µM) in assay [3]. Moreover, the IC50 in assay [4] amounted to 64 µg/mL (≈ 20.4 µM); in assay [5], 1.2 µg/mL (≈ 0.383 µM); in assay [6] it was 200 µg/mL (≈ 63.8 µM); in assay [7], 21 µg/mL (≈ 6.7 µM).
As to `CN[C@H](CC(C)C)C(=O)N[C@H]1C(=O)N[C@@H](CC(N)=O)C(=O)N[C@H]2C(=O)N[C@H]3C(=O)N[C@H](C(=O)N[C@H](C(=O)O)c4cc(O)cc(O)c4-c4cc3ccc4O)[C@H](O)c3ccc(c(Cl)c3)Oc3cc2cc(c3O[C@@H]2O[C@H](CO)[C@@H](O)[C@H](O)[C@H]2O[C@H]2C[C@](C)(NCc3c4oc5c(CN[C@@]6(C)C[C@H](O[C@H]7[C@H](Oc8c9cc%10cc8Oc8ccc(cc8Cl)[C@@H](O)[C@@H](NC(=O)[C@@H](CC(C)C)NC)C(=O)N[C@@H](CC(N)=O)C(=O)N[C@H]%10C(=O)N[C@H]8C(=O)N[C@H](C(=O)N[C@H](C(=O)O)c%10cc(O)cc(O)c%10-c%10cc8ccc%10O)[C@H](O)c8ccc(c(Cl)c8)O9)O[C@H](CO)[C@@H](O)[C@@H]7O)O[C@@H](C)[C@H]6O)cccc5nc-4cc(N)c3=O)[C@H](O)[C@H](C)O2)Oc2ccc(cc2Cl)[C@H]1O`, the MIC in [1] came to 2 µg/mL (≈ 0.638 µM); in assay [2], 8 µg/mL (≈ 2.55 µM); in assay [3], 1 µg/mL (≈ 0.319 µM). In addition, the IC50 amounted to 98 µg/mL (≈ 31.3 µM) in [4], 2.2 µg/mL (≈ 0.702 µM) in assay [5], 700 µg/mL (≈ 223 µM) in assay [6] and 31 µg/mL (≈ 9.89 µM) in [7].
With `CN[C@H](CC(C)C)C(=O)N[C@H]1C(=O)N[C@@H](CC(N)=O)C(=O)N[C@H]2C(=O)N[C@H]3C(=O)N[C@H](C(=O)N[C@H](C(=O)NCc4cccc(NC(=O)c5c6nc7c(C(=O)Nc8cccc(CNC(=O)[C@H]9NC(=O)[C@H]%10NC(=O)[C@H](NC(=O)[C@@H]%11NC(=O)[C@H](CC(N)=O)NC(=O)[C@H](NC(=O)[C@@H](CC(C)C)NC)[C@H](O)c%12ccc(c(Cl)c%12)Oc%12cc%11cc(c%12O[C@@H]%11O[C@H](CO)[C@@H](O)[C@H](O)[C@H]%11O[C@H]%11C[C@](C)(N)[C@H](O)[C@H](C)O%11)Oc%11ccc(cc%11Cl)[C@H]%10O)c%10ccc(O)c(c%10)-c%10c(O)cc(O)cc%109)c8)ccc(C)c7oc-6c(C)c(=O)c5N)c4)c4cc(O)cc(O)c4-c4cc3ccc4O)[C@H](O)c3ccc(c(Cl)c3)Oc3cc2cc(c3O[C@@H]2O[C@H](CO)[C@@H](O)[C@H](O)[C@H]2O[C@H]2C[C@](C)(N)[C@H](O)[C@H](C)O2)Oc2ccc(cc2Cl)[C@H]1O`, the results for the minimal inhibitory concentration (MIC) in [1], in assay [2] and in assay [3] were 8 µg/mL (≈ 2.35 µM), 16 µg/mL (≈ 4.71 µM) and 16 µg/mL (≈ 4.71 µM), respectively. Also, the inhibition entry in [8], in assay [9], in assay [10], in assay [11] and in assay [12] was “inactive” throughout.
In the case of `CN[C@H](CC(C)C)C(=O)N[C@H]1C(=O)N[C@@H](CC(N)=O)C(=O)N[C@H]2C(=O)N[C@H]3C(=O)N[C@H](C(=O)N[C@H](C(=O)O)c4cc(O)cc(O)c4-c4cc3ccc4O)[C@H](O)c3ccc(c(Cl)c3)Oc3cc2cc(c3O[C@@H]2O[C@H](CO)[C@@H](O)[C@H](O)[C@H]2O[C@H]2C[C@](C)(NCc3cccc(NC(=O)c4ccc(C)c5oc6c(C)c(=O)c(N)c(C(=O)Nc7cccc(CN[C@@]8(C)C[C@H](O[C@H]9[C@H](Oc%10c%11cc%12cc%10Oc%10ccc(cc%10Cl)[C@@H](O)[C@@H](N)C(=O)N[C@@H](CC(N)=O)C(=O)N[C@H]%12C(=O)N[C@H]%10C(=O)N[C@H](C(=O)N[C@H](C(=O)O)c%12cc(O)cc(O)c%12-c%12cc%10ccc%12O)[C@H](O)c%10ccc(c(Cl)c%10)O%11)O[C@H](CO)[C@@H](O)[C@@H]9O)O[C@@H](C)[C@H]8O)c7)c-6nc45)c3)[C@H](O)[C@H](C)O2)Oc2ccc(cc2Cl)[C@H]1O`, the MIC in assay [1] came to 1 µg/mL (≈ 0.305 µM); in assay [2] it was 8 µg/mL (≈ 2.44 µM); in assay [3], 2 µg/mL (≈ 0.611 µM). Further, the inhibition entry in assay [8], in assay [9], in assay [10], in assay [11] and in assay [12] was “inactive” each time. For the same molecule, the IC50 in assay [4] came to 74 µg/mL (≈ 22.6 µM); in [5] it was 11 µg/mL (≈ 3.36 µM); in [6], 300 µg/mL (≈ 91.6 µM); in [7], 61 µg/mL (≈ 18.6 µM).
With `CN[C@H](CC(C)C)C(=O)N[C@H]1C(=O)N[C@@H](CC(N)=O)C(=O)N[C@H]2C(=O)N[C@H]3C(=O)N[C@H](C(=O)N[C@H](C(=O)O)c4cc(O)cc(O)c4-c4cc3ccc4O)[C@H](O)c3ccc(c(Cl)c3)Oc3cc2cc(c3O[C@@H]2O[C@H](CO)[C@@H](O)[C@H](O)[C@H]2O[C@H]2C[C@](C)(N)[C@H](O)[C@H](C)O2)Oc2ccc(cc2Cl)[C@H]1O`, the inhibition entry in assay [8], in [9], in [10], in assay [11] and in assay [12] was “inactive” each time.
Turning to `Cc1c2oc3c(C)ccc(C(=O)Nc4cccc(CN[C@@]5(C)C[C@H](O[C@H]6[C@H](Oc7c8cc9cc7Oc7ccc(cc7Cl)[C@@H](O)[C@@H](N)C(=O)N[C@@H](CC(N)=O)C(=O)N[C@H]9C(=O)N[C@H]7C(=O)N[C@H](C(=O)N[C@H](C(=O)O)c9cc(O)cc(O)c9-c9cc7ccc9O)[C@H](O)c7ccc(c(Cl)c7)O8)O[C@H](CO)[C@@H](O)[C@@H]6O)O[C@@H](C)[C@H]5O)c4)c3nc-2c(C(=O)Nc2cccc(CN[C@@]3(C)C[C@H](O[C@H]4[C@H](Oc5c6cc7cc5Oc5ccc(cc5Cl)[C@@H](O)[C@@H](N)C(=O)N[C@@H](CC(N)=O)C(=O)N[C@H]7C(=O)N[C@H]5C(=O)N[C@H](C(=O)N[C@H](C(=O)O)c7cc(O)cc(O)c7-c7cc5ccc7O)[C@H](O)c5ccc(c(Cl)c5)O6)O[C@H](CO)[C@@H](O)[C@@H]4O)O[C@@H](C)[C@H]3O)c2)c(N)c1=O`, the MIC in assay [1] was 4 µg/mL (≈ 1.27 µM); in assay [2], over 64 µg/mL; in [3], 32 µg/mL (≈ 10.2 µM). Moreover, the half-inhibitory concentration (IC50) was determined as 460 µg/mL (≈ 146 µM) in [4], 20 µg/mL (≈ 6.36 µM) in assay [5], 530 µg/mL (≈ 168 µM) in [6] and 100 µg/mL (≈ 31.8 µM) in [7].
